Like-named read-outs stand apart in the source and are kept apart here.
How the values were obtained:
[1] = Preventive effect on formation of indomethacin-induced ulcers; format: in vivo, rat (female Sprague-Dawley); conditions: rat, in vivo, iv; LD50 (mouse, i.v.) / ED50 (ulcer); read-out: Therapeutic Index
[2] = tested on: indomethacin-induced ulcers; assay: as above; format: in vivo, rat (female Sprague-Dawley); conditions: for ED50: Rattus norvegicus, ip, 4 h, read-out: ED50 (ulcer prevention)
[3] = tested on: acetic acid-induced writhing; assay: Writhing test (acetic acid); format: in vivo, rat;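 for Analgesic activity: ++ means marked effect and + means moderate effect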
Experimental: (§1) The analgesic activity of the compounds of formula (I) was tested in the following manner: […]
The compounds studied and saline were administered p.o. to rats. Forty-five minutes later, 1 ml of 1% acetic acid was administered i.p. The number of writhes was recorded in the following 25 minute period (Koster et al: Fed. Proc. 18:412, 1959).

[4] = tested on: male mice on a 55° C. hot plate; assay: Hot plate test; format: in vivo, mouse (male); conditions: for Analgesic activity: 1.5 mg/kg; for change in vivo at 1.5 mg/kg: Mus musculus, ip, 0.5 h, 1.5 mg/kg i.p., read-out: increase in HP-time (%)
Experimental: as §1
Test compounds or saline were given i.p. to male mice. Thirty minutes thereafter, the time for which the mice remained on a 55° C. plate was recorded. The results are expressed as compared to saline.

[5] = tested on: carrageenan-induced oedema; assay: Inhibition of carrageenan-induced oedema; format: in vivo, rat; conditions: for inhibition in vivo at 100 mg/kg: po, read-out: inhibition carrageenan-induced oedema (%);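 for Anti-inflammatory activity: ++ means marked effect and + means moderate effect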
Experimental: The anti-inflammatory activity of the compounds of the invention was determined by inhibition of the carrageenan induced oedema in rats by the compounds examined (Winter C. A. et al., Proc. Soc. Exp. Biol. Med. 111:544, 1962).

[6] = Acute toxicity in female NMRI mice, i.v.; conditions: in vivo, iv, mouse
Experimental: Acute toxicity was determined by using female mice of NMRI-Strain with an age of about 7 months and weighing 30-40 g. The administration of the test compound was i.v.

[7] = tested on: anesthetized Sprague-Dawley rats (blood pressure, pulse frequency); assay: Blood pressure and pulse frequency in anesthetized normal-weight Sprague-Dawley rats (i.v.); format: in vivo, rat (Sprague-Dawley); conditions: for minimal effective dose: Rattus norvegicus, iv; for anti-hypertensive effect: tested as above
Experimental: The anti-hypertensive properties of the imidazole derivatives of the present invention have been determined according to the following procedure. Sprague-Dawley rats of normal weight were first anesthetized with urethane. After this, the femoral artery was connected by way of a polyethylene tube with a blood pressure transducer. The test substance was then injected into the femoral vein and the blood pressure and the pulse frequency were registered with a recorder. The minimum doses producing a significant change were found, i.e. ± at least 20% in the case of blood pressure, and ± at least 3% in the case of pulse frequency.

[8] = read-out: Blood Pressure Minimum Dose having a significant lowering effect
[9] = read-out: Pulse frequency Minimum Dose having a significant lowering effect

SMILES	Analgesic activity ([3]; 100 mg/kg)	W-number ([3]; 100 mg/kg p.o.)	Anti-inflammatory activity ([5]; 100 mg/kg p.o. in the rat)	inhibition in vivo at 100 mg/kg ([5]; Rattus norvegicus) [%]	LD50 [6] [mg/kg]	further results
Cc1ccc(Cc2c[nH]cn2)c(C)c1 [4-(2',4'-dimethylbenzyl)imidazole, 4-(2',4'-Dimethylbenzyl)imidazole]	++	0	++	76	65	selectivity ratio [1]: 2170; ED50 [2]: 0.03 mg/kg; Analgesic activity [4]: +; change in vivo at 1.5 mg/kg [4]: 200%
Cc1ccc(C(O)c2c[nH]cn2)cc1 (stereo not drawn) [4-[α-(4'-Methylphenyl)]hydroxymethylimidazole]	++	0.6	+	38	–	–
Clc1cccc(Cl)c1Cc1cnc[nH]1 [4-(2',6'-dichlorobenzyl)imidazole, 4-(2',6'-Dichlorobenzyl)imidazole]	–	–	–	–	48	minimal effective dose [7, 8]: 0.03 to 0.1 mg/kg; minimal effective dose [7, 9]: 0.03 to 0.1 mg/kg; selectivity ratio [1]: 1600; ED50 [2]: 0.03 mg/kg
COc1ccccc1C(O)c1c[nH]cn1 (stereo not drawn) [4-[α-(2'-Methoxyphenyl)]hydroxymethylimidazole]	+	2.5	++	69	–	minimal effective dose [7, 8]: 0.3 to 1 mg/kg; minimal effective dose [7, 9]: 1 mg/kg
Cc1ccccc1Cc1nc[nH]c1C [5-methyl-4-(2'-methylbenzyl)imidazole, 5-Methyl-4-(2'-methylbenzyl)imidazole]	–	–	+	–	–	Analgesic activity ([3]; 30 mg/kg): +; W-number ([3]; 30 mg/kg p.o.): 43; inhibition in vivo at 100 mg/kg ([5]; 100 mg/kg p.o. in the rat): 44%
Cc1ccc(C(O)c2c[nH]cn2)c(C)c1 (stereo not drawn) [4-[α-(2',4'-Dimethylphenyl)]hydroxymethylimidazole]	+	1.3	–	–	–	–
COc1ccc(C(O)c2c[nH]cn2)cc1 (stereo not drawn) [4-[α-(4'-Methoxyphenyl)]hydroxymethylimidazole]	+	1.9	–	–	–	–
Cc1ccccc1C(=O)c1nc[nH]c1C [5-methyl-4-(2'-methylbenzoyl)imidazole, 5-Methyl-4-(2'-methylbenzoyl)imidazole]	–	–	+	–	–	inhibition in vivo at 100 mg/kg ([5]; 100 mg/kg p.o. in the rat): 44%
Cc1cccc(C)c1C(=O)c1c[nH]cn1 [4-(2',6'-dimethylbenzoyl)imidazole, 4-(2',6'-Dimethylbenzoyl)imidazole]	–	–	–	–	> 100	anti-hypertensive effect [7]: only a very slight anti-hypertensive effect; prevention of the formation of ulcers ([2]; 10 mg/kg): prevented them partially; prevention of the formation of ulcers ([2]; 20 mg/kg): prevented completely the formation of ulcers
CCOC(c1c[nH]cn1)c1c(C)cccc1C (stereo not drawn) [4-[α-(2',6'-Dimethylphenyl)]ethoxymethylimidazole]	++	0.6	+	35	45	anti-hypertensive effect [7]: only a very slight anti-hypertensive effect; prevention of the formation of ulcers ([2]; 0.5 mg/kg): prevented them partly; prevention of the formation of ulcers ([2]; 5 mg/kg): completely prevented the formation of ulcers
CCc1ccccc1C(O)c1c[nH]cn1 (stereo not drawn) [4-[α-(2'-Ethylphenyl)]hydroxymethylimidazole]	++	0	++	73	–	Analgesic activity [4]: +; change in vivo at 1.5 mg/kg [4]: 300%
COC(c1c[nH]cn1)c1c(C)cccc1C (stereo not drawn) [4-[α-(2',6'-Dimethylphenyl)]methoxymethylimidazole]	+	13	+	40	–	–
COc1cccc(C(O)c2c[nH]cn2)c1 (stereo not drawn) [4-[α-(3'-Methoxyphenyl)]hydroxymethylimidazole]	++	0	++	71	–	–
CCc1cccc(CC)c1C(O)c1c[nH]cn1 (stereo not drawn) [4-[α-(2',6'-diethylphenyl)]hydroxymethylimidazole]	–	–	–	–	–	minimal effective dose [7, 8]: 0.3 to 1 mg/kg; minimal effective dose [7, 9]: 0.3 to 1 mg/kg
Cc1ccccc1Cc1c[nH]cn1 [4-(2'-methylbenzyl)imidazole, 4-(2'-Methylbenzyl)imidazole]	–	–	–	–	25	lowering of blood pressure ([7]; 0.5 mg/kg i.v., 30 minutes after administration): 10%; minimal effective dose [7, 8]: 0.01 to 0.1 mg/kg; minimal effective dose [7, 9]: 0.1 to 1 mg/kg; selectivity ratio [1]: 5000; prevention of the formation of ulcers ([2]; 5 μg/kg i.p.): complete prevention of the formation of ulcers; ED50 [2]: 0.005 mg/kg; Analgesic activity [4]: +; change in vivo at 1.5 mg/kg [4]: 200%
Cc1cccc(C(O)c2c[nH]cn2)c1 (stereo not drawn) [4-[α-(3'-Methylphenyl)]hydroxymethylimidazole]	++	0	+	34	–	–
CCc1cccc(CC)c1Cc1c[nH]cn1 [4-(2',6'-diethylbenzyl)imidazole]	–	–	–	–	–	minimal effective dose [7, 8]: 0.03 to 0.2 mg/kg; minimal effective dose [7, 9]: 0.03 mg/kg
CCc1ccccc1Cc1c[nH]cn1 [4-(2'-ethylbenzyl)imidazole, 4-(2'-Ethylbenzyl)imidazole]	–	–	–	–	34	selectivity ratio [1]: 6800; ED50 [2]: 0.005 mg/kg; Analgesic activity [4]: +; change in vivo at 1.5 mg/kg [4]: 150%
Cc1cccc(C)c1C(O)c1nc[nH]c1C (stereo not drawn) [5-Methyl-4-[α-(2',6'-dimethylphenyl)]hydroxymethylimidazole]	+	13	+	–	–	inhibition in vivo at 100 mg/kg ([5]; 100 mg/kg p.o. in the rat): 52%
Cc1cccc(C)c1Cc1nc[nH]c1C [5-Methyl-4-(2',6'-dimethylbenzyl)imidazole]	–	–	–	–	27	anti-hypertensive effect [7]: no anti-hypertensive effect was found; prevention of the formation of ulcers ([2]; 0.5 mg/kg): partly prevented the formation of ulcers; prevention of the formation of ulcers ([2]; 5 mg/kg): prevented them completely
Cc1ccccc1C(O)c1c[nH]cn1 (stereo not drawn) [4-[α-(2'-Methylphenyl)]hydroxymethylimidazole]	++	0	+	41	160	anti-hypertensive effect [7]: no anti-hypertensive effect was found; prevention of the formation of ulcers ([2]; 0.5 mg/kg): prevented them partly; prevention of the formation of ulcers ([2]; 5 mg/kg): completely prevented the formation of ulcers
Cc1ccc(C(=O)c2c[nH]cn2)cc1 [4-(4'-methylbenzoyl)imidazole, 4-(4'-Methylbenzoyl)imidazole]	–	–	+	–	–	inhibition in vivo at 100 mg/kg ([5]; 100 mg/kg p.o. in the rat): 40%
Cc1cccc(C(O)c2c[nH]cn2)c1C (stereo not drawn) [4-[α-(2',3'-Dimethylphenyl)]hydroxymethylimidazole]	++	0	+	52	–	Analgesic activity [4]: ++; change in vivo at 1.5 mg/kg [4]: 400%
Cc1ccccc1C(O)c1nc[nH]c1C (stereo not drawn) [5-Methyl-4-[α-(2'-methylphenyl)]hydroxymethylimidazole]	–	–	+	–	–	inhibition in vivo at 100 mg/kg ([5]; 100 mg/kg p.o. in the rat): 67%

— US4443466A, “4-Benzyl- and 4-benzoyl-substituted imidazole derivatives and use as medicaments” (priority 1980, dated 1984)
